From ChEMBL document CHEMBL5321247, “Discovery of NXT-10796, an orally active, intestinally restricted EP4 agonist prodrug for the treatment of inflammatory bowel disease” (Bioorg Med Chem Lett, 2023)
Active and inactive are the calls of the source. No cut-off for these calls is given here.

Key:
[1] = Drug uptake in BALB/c mouse Feces at 1 mg/kg, po measured at 24 hrs; format: ADME, organism-based; settings: in vivo
[2] = Drug uptake in BALB/c mouse plasma at 1 mg/kg, po or iv; format: ADME, organism-based; settings: in vivo
[3] = Drug uptake in BALB/c mouse Colon at 1 mg/kg, po measured at 24 hrs; format: ADME, organism-based; settings: in vivo
[4] = Oral bioavailability in BALB/c mouse at 1 mg/kg measured at 24 hrs; format: ADME, organism-based; settings: in vivo
[5] = Drug uptake in BALB/c mouse Colon at 1 mg/kg, po; format: ADME, organism-based; settings: in vivo
[6] = Cmax in BALB/c mouse plasma at 1 mg/kg, po or iv measured at 24 hrs; format: ADME, organism-based; design: dose 1 mg/kg, time 24 hrs, route po
[7] = Drug uptake in BALB/c mouse Feces at 1 mg/kg, po; format: ADME, organism-based; settings: in vivo
Mus musculus = assay: In vivo agonist activity at EP4 in po dosed C57BL/6J mouse assessed as increase in renin level in plasma at 10 mg/kg, po measured after 2 hrs; format: functional, organism-based
[8] = In vivo agonist activity at EP4 in po dosed C57BL/6J mouse assessed as increase in Ccl5 expression in colon administered for 3 days by qPCR analysis; format: organism-based; settings: 72 h, dose 1-5 mg/kg, time 3 day

Drug uptake [1]	Drug uptake [2]	Drug uptake [3]	bioavailability [4] [%]	Drug uptake [5]	Cmax [6] [nM]	Drug uptake [7]	Activity [8]	SMILES	Activity (Mus musculus)
Active	Not Active	Active						O=C(CCCCCCN1C(=O)CC[C@@H]1/C=C/[C@@H](O)Cc1ccccc1)NS(=O)(=O)c1ccccc1	
Active		Active	3	Active	~50	Active		O=C(O)CCCCCCN1C(=O)CC[C@@H]1/C=C/[C@@H](O)Cc1ccccc1	
							Dose-Dependent Effect	O=C(CCCCCCN1C(=O)CC[C@@H]1/C=C/[C@@H](O)Cc1ccccc1)NNC(=O)C(=O)O	inactive
